Test results published in patent US20220257722A1, “COMPOSITIONS AND METHODS OF TREATING AND PREVENTING SYSTEMIC COMPLICATIONS OF ACUTE ILLNESS” (United States Government As Represented By The Department …, priority 2019, published 2022).

System: rat small intestine
Assay: In vivo small intestinal perfusion: FITC-LPS transport into portal vein and mesenteric lymph during OA/TCA exposure
Conditions: for TDG-related augmentation of FITC-LPS transport into the lymph: L-NAME 0.1 mM perfused or PG97-269 0.3 mg/kg iv before TDG; for inhibitory effect of TDG on FITC-LPS transport into the PV: L-NAME 0.1 mM perfused or PG97-269 0.3 mg/kg iv before TDG 50 μg/kg iv; for AUC0-90 of lymph FITC-LPS compared with the +TDG group / TDG-induced reduction of AUC0-90 PV FITC-LPS / lymph output in TDG-treated rats: L-NAME or PG97-269 before TDG; for AUC0-90 of PV FITC-LPS / AUC0-90 of lymph FITC-LPS: OA/TCA-augmented, 0-90 min; for OA/TCA-induced FITC-LPS transport into the PV: intraduodenal FITC-LPS 50 μg/ml + OA 30 mM/TCA 10 mM, anesthetized rats; for FITC-LPS transport into the lymph: intraduodenal FITC-LPS + OA/TCA
Description: In vivo small intestinal perfusion. Intraduodenal perfusions combined with PV and mesenteric lymph cannulation were carried out (1, 48). Under isoflurane anesthesia (2%), the animal was placed supine on a recirculating heating block system (Summit Medical Systems, Bend, Oreg., USA) in order to maintain body temperature at 36-37° C. Prewarmed saline was infused via the right femoral vein at 1.08 ml/h using a Harvard infusion pump (Harvard Apparatus, Holliston, Mass., USA). The abdomen was incised, and the PV was cannulated with a polyethylene (PE)-50 tube attached with 23G needle and fixed by methylacrylate adhesive at the insertion site. The tube was filled with heparinized saline enabling repeated blood sampling. PV samples (0.2 ml each) were collected every 15 min, followed by 0.2 ml flushes with heparinized saline. […] The lymph solution was continuously collected into a 1.5-ml tube every 15 min. A polyethylene tube (diameter 5 mm) filled with PBS was inserted through the forestomach and tied at 0.5 cm caudal from the pyloric ring. After bolus perfusion of 2 ml PBS into the duodenum from the tube, followed by stabilization for ˜30 min, the time was set as t=0 min. FITC-LPS (50 μg/ml) in 2-ml PBS with or without OA (30 mM) and TCA (10 mM) was bolus perfused at t=0 min. In order to maintain lymph flow, 2-ml PBS was perfused every 30 min. PV and lymph samples were collected every 15 min for 90 min. Blood samples were collected in a 0.5-ml tube containing 1 μl each of EDTA (0.5 M), and immediately centrifuged at 5,000 × g for 5 min, after which the plasma was stored at −80° C. until use. The lymph solution was weighed to measure its volume and centrifuged, with the supernatant stored at −80° C. until use. At 90 min, after collection of PV and lymph samples, arterial blood was taken from abdominal aorta for a reference sample, followed by euthanasia by thoracotomy.
The appearance of FITC-LPS into the PV plasma and lymph was assessed by fluorescence measurement using Synergy-2. Fluorescence intensity in the t=0 sample as background was subtracted from the fluorescence values measured in other time point samples. For lymph samples, the FITC-LPS concentration was multiplied by the lymph output in order to calculate total FITC-LPS appearance. FITC-LPS appearance was expressed as PV FITC-LPS content (ng/ml) or FITC-LPS transport into lymph (ng/15 min). Furthermore, total FITC-LPS transport into the PV and lymph was assessed by calculating the area under the curve (AUC) during 0-90 min of FITC-LPS appearance (AUC0-90) using the trapezoidal rule and expressed as AUC0-90 of PV FITC-LPS (μg·min/ml) and AUC0-90 of lymph FITC-LPS (μg).
Intestinal perfusion study: drug treatment. The lipid raft inhibitor MβCD (1 mM), the CD36 inhibitor SSO (1 mM), and PL81 (3%) were added to the initial perfusion of 2-ml PBS at t=−30 min, followed by their addition to the luminal FITC-LPS/OA/TCA solution at t=0 min.
Effect of TDG on intestinal LPS transport. The stable, DPP4-resistant analog of GLP-2, TDG (13) was used to examine the acute effect of GLP-2 on LPS transport into PV and mesenteric lymph in vivo. TDG (50 μg/kg) was bolus injected iv 15 min before the luminal FITC-LPS/OA/TCA perfusion (at t=−15 min). L-NAME was added to the first perfusion of 2 ml PBS (at t=−30 min). PG97-269 (0.3 mg/kg) was bolus injected iv 20 min before the luminal FITC-LPS/OA/TCA perfusion (at t=−20 min).

Molecule	TDG-related augmentation of FITC-LPS transport into the lymph	inhibitory effect of TDG on FITC-LPS transport into the PV	AUC0-90 of lymph FITC-LPS compared with the +TDG group	TDG-induced reduction of AUC0-90 PV FITC-LPS	lymph output in TDG-treated rats	AUC0-90 of PV FITC-LPS	AUC0-90 of lymph FITC-LPS	OA/TCA-induced FITC-LPS transport into the PV	FITC-LPS transport into the lymph	lymphatic output (t=0-30 min, TDG 50 μg/kg iv at t=-15 min vs non-pretreated controls)
COC(=O)[C@@H](N)CCCNC(=N)N[N+](=O)[O-] [L-NAME, Nω-nitro-L-arginine methyl ester]	inhibited	reduced	reduced	reversed	reduced					
CCCCCCCC/C=C\CCCCCCCC(=O)ON1C(=O)CC(S(=O)(=O)O)C1=O (centres unmarked) [SSO, sulfosuccinimidyl oleate]						failed to affect	no effect	inhibited	no effect	
CC[C@H](C)[C@H](NC(=O)[C@H](Cc1ccccc1)NC(=O)[C@H](CC(=O)O)NC(=O)[C@H](CCCNC(=N)N)NC(=O)[C@H](C)NC(=O)[C@H](C)NC(=O)[C@H](CC(C)C)NC(=O)[C@H](CC(N)=O)NC(=O)[C@H](CC(=O)O)NC(=O)[C@H](CC(C)C)NC(=O)[C@@H](NC(=O)[C@@H](NC(=O)[C@H](CC(N)=O)NC(=O)[C@H](CCSC)NC(=O)[C@H](CCC(=O)O)NC(=O)[C@H](CC(=O)O)NC(=O)[C@H](CO)NC(=O)[C@H](Cc1ccccc1)NC(=O)[C@H](CO)NC(=O)CNC(=O)[C@H](CC(=O)O)NC(=O)CNC(=O)[C@@H](N)Cc1c[nH]cn1)[C@@H](C)O)[C@@H](C)CC)C(=O)N[C@@H](CC(N)=O)C(=O)N[C@@H](Cc1c[nH]c2ccccc12)C(=O)N[C@@H](CC(C)C)C(=O)N[C@H](C(=O)N[C@@H](CCC(N)=O)C(=O)N[C@H](C(=O)N[C@@H](CCCCN)C(=O)N[C@H](C(=O)N[C@H](C(=O)N[C@@H](CC(=O)O)C(=O)O)[C@@H](C)O)[C@@H](C)CC)[C@@H](C)O)[C@@H](C)CC [TDG]						reduced	no significant effect	abolished	rapidly increased	rapid increase
[Ac-His^1, D-Phe^2, Lys^15, Arg^16, Leu^27]-VIP(1-7)-GRF(8-27) (HFDAVFTNSYRKVLKRLSARKLLQDIL; HELM PEPTIDE1{[ac].H.[dF].D.A.V.F.T.N.S.Y.R.K.V.L.K.R.L.S.A.R.K.L.L.Q.D.I.L.[am]}$$$$V2.0; SMILES CC[C@H](C)[C@H](NC(=O)[C@H](CC(=O)O)NC(=O)[C@H](CCC(N)=O)NC(=O)[C@H](CC(C)C)NC(=O)[C@H](CC(C)C)NC(=O)[C@H](CCCCN)NC(=O)[C@H](CCCNC(=N)N)NC(=O)[C@H](C)NC(=O)[C@H](CO)NC(=O)[C@H](CC(C)C)NC(=O)[C@H](CCCNC(=N)N)NC(=O)[C@H](CCCCN)NC(=O)[C@H](CC(C)C)NC(=O)[C@@H](NC(=O)[C@H](CCCCN)NC(=O)[C@H](CCCNC(=N)N)NC(=O)[C@H](Cc1ccc(O)cc1)NC(=O)[C@H](CO)NC(=O)[C@H](CC(N)=O)NC(=O)[C@@H](NC(=O)[C@H](Cc1ccccc1)NC(=O)[C@@H](NC(=O)[C@H](C)NC(=O)[C@H](CC(=O)O)NC(=O)[C@@H](Cc1ccccc1)NC(=O)[C@H](Cc1c[nH]cn1)NC(C)=O)C(C)C)[C@@H](C)O)C(C)C)C(=O)N[C@@H](CC(C)C)C(N)=O) [PG97-269]	inhibited	no effect	reduced	no effect	reduced					
methyl-β-cyclodextrin [MβCD]						abolished	no effect	abolished	no effect	
